The values below are quoted from earlier work in patent US11399558B2, “Rebaudioside-D containing sweetener compositions” (Heartland Consumer Products, LLC, priority 2015, dated 2022).

For data set [1] the following is noted: absorbed into the bloodstream in the small intestine.
For data set [2] the following is noted: on a weight basis.
The conditions of data set [3]: heat, acid, and alkaline conditions.
For data set [4] the following is noted: for Solubility in ethanol: ethanol / alcohol.
The conditions of data set [5]: Chang et al. 1983.

Molecules are shown by their SMILES. Where two headings read alike, the source gives them in different places.

With `OC[C@@H](O)[C@@H](O)CO` [Eryrithritol, 1,2,3,4-butanetetrol], the Excretion result in data set [1] is “for the most part is excreted unchanged in the urine”. For the same compound, in data set [2], the “Sweetness relative to sucrose (cane sugar)” value was “about 70%”. Further, the Stability result in data set [3] is “stable”. For the same compound, the “Solubility in DMSO” value in data set [4] (DMSO) is given as “Insoluble”. In data set [4], the Solubility in ethanol result was “Slight” and the Solubility in water entry was “Soluble”. For the same compound, in data set [4] (listed as Erythritol), the Solubility in ethanol result was “slightly soluble” and the Solubility in water result is reported as “water soluble”.

As to `C=C1C[C@@]23CC[C@H]4[C@@](C)(CCC[C@@]4(C)C(=O)O[C@@H]4O[C@H](CO)[C@@H](O)[C@H](O)[C@H]4O)[C@@H]2CC[C@]1(O[C@@H]1O[C@H](CO)[C@@H](O)[C@H](O[C@@H]2O[C@H](CO)[C@@H](O)[C@H](O)[C@H]2O)[C@H]1O[C@@H]1O[C@H](CO)[C@@H](O)[C@H](O)[C@H]1O)C3` [Rebaudioside A], the “Stability in carbonated beverages” value in data set [5] is “heat and pH stability”.

For the compound `C=C1C[C@@]23CC[C@H]4[C@@](C)(CCC[C@@]4(C)C(=O)O[C@@H]4O[C@H](CO)[C@@H](O)[C@H](O)[C@H]4O)[C@@H]2CC[C@]1(O[C@@H]1O[C@H](CO)[C@@H](O)[C@H](O)[C@H]1O[C@@H]1O[C@H](CO)[C@@H](O)[C@H](O)[C@H]1O)C3` [Stevioside], in data set [5], the “Stability in carbonated beverages” value was “heat and pH stability”.
